Consider 33 compounds from ChEMBL document CHEMBL5032530, “Discovery of Benzocyclic Sulfone Derivatives as Potent CXCR2 Antagonists for Cancer Immunotherapy” (J Med Chem, 2021).

The source made the active and inactive calls. The rule behind the calls is not given here.

In data set [1] the target is T1, C-X-C chemokine receptor type 2 (Homo sapiens, UniProt P25025).
T1 sequence (P25025 whole entry): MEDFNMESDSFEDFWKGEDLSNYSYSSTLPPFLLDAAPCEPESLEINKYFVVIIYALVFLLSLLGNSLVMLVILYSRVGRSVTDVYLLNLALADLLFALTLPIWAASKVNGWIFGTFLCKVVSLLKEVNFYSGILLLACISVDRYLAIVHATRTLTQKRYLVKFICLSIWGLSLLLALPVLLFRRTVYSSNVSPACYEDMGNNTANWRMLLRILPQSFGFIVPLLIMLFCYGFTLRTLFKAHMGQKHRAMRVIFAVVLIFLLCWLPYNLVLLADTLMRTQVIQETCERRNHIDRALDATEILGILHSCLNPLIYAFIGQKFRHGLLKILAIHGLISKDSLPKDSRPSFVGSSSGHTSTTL
Briefly: Antagonist activity at human CXCR2 expressed in HEK293 cells assessed as inhibition of CXCL8-induced beta-arrestin recruitment preincubated for 30 mins followed by addition of agonist incubated for 90 mins by beta arrestin assay. The class given is functional, cell-based.

Data set [2] is described as follows: Half life in ICR mouse at 30 mg/kg, po measured upto 48 hrs. The class given is ADME, organism-based. As to conditions: in vivo, 30 mg/kg, 48 h.
Data set [3] in a line: AUC (0 to infinity) in ICR mouse at 30 mg/kg, po measured upto 48 hrs. The class given is ADME, organism-based. The arrangement: route oral, dose 30 mg/kg, time <=48. As to conditions: in vivo, 48 h.
Data set [4] is described as follows: Apparent volume of distribution in ICR mouse at 3 mg/kg, iv measured upto 48 hrs. The class given is ADME, organism-based. The settings on record: in vivo, read-out: Vz.
Data set [5] in a line: Clearance in ICR mouse at 30 mg/kg, po measured upto 48 hrs. The class given is ADME, organism-based. As to conditions: in vivo, 30 mg/kg, 48 h.
Data set [6] in a line: Cmax in ICR mouse at 3 mg/kg, iv measured upto 48 hrs. The class given is ADME, organism-based. The arrangement: route intravenous, dose 3 mg/kg, time <=48. The settings on record: in vivo.
Data set [7] is described as follows: Apparent volume of distribution in ICR mouse at 30 mg/kg, po measured upto 48 hrs. The class given is ADME, organism-based. The settings on record: in vivo.
Data set [8] is described as follows: Tmax in ICR mouse at 3 mg/kg, iv measured upto 48 hrs. The class given is ADME, organism-based. The settings on record: in vivo.
Data set [9] can be described thus: AUC (0 to infinity) in ICR mouse at 3 mg/kg, iv measured upto 48 hrs. The class given is ADME, organism-based. The arrangement: route intravenous, dose 3 mg/kg, time <=48. The settings on record: in vivo.
A short description of data set [10]: Cmax in ICR mouse at 30 mg/kg, po measured upto 48 hrs. The class given is ADME, organism-based. The arrangement: route oral, dose 30 mg/kg, time <=48. The settings on record: in vivo.
The nature of data set [11]: Clearance in ICR mouse at 3 mg/kg, iv measured upto 48 hrs. The class given is ADME, organism-based. As to conditions: in vivo.
The test system of data set [12] is Neutrophil. Description: In vivo antagonist activity at CXCR2 in carrageenan-induced C57BL/6 mouse air pouch inflammation model assessed as reduction in neutrophil infiltration into air pouch at 10 mg/kg, po bid administered after 3 days of carrageenan treatment for 3 days. As to conditions: time 3.0 day. The class given is functional, organism-based.
A short description of data set [13]: AUC (0 to t) in ICR mouse at 3 mg/kg, iv measured upto 48 hrs. The class given is ADME, organism-based. The arrangement: route intravenous, dose 3 mg/kg, time <=48. The settings on record: in vivo.
A short description of data set [14]: AUC (0 to t) in ICR mouse at 30 mg/kg, po measured upto 48 hrs. The class given is ADME, organism-based. The arrangement: route oral, dose 30 mg/kg, time <=48. The settings on record: in vivo.
A short description of data set [15]: Tmax in ICR mouse at 30 mg/kg, po measured upto 48 hrs. As to conditions: in vivo. The class given is ADME, organism-based.
The nature of data set [16]: Oral bioavailability in ICR mouse at 30 mg/kg measured upto 48 hrs. The class given is ADME, organism-based. As to conditions: in vivo.
A short description of data set [17]: Half life in ICR mouse at 3 mg/kg, iv measured upto 48 hrs. The class given is ADME, organism-based. The settings on record: in vivo.

On to `O=c1c(Nc2ccc3c(c2O)S(=O)(=O)CCC3)c(Nc2cccc(Cl)c2Cl)c1=O`, for which the IC50 in data set [1] amounted to 9990 nM.
On to `O=c1c(Nc2ccccc2Cl)c(Nc2ccc3c(c2O)S(=O)(=O)CCC3)c1=O`, for which, in data set [1], the IC50 was 1050 nM.
As to `O=C(Nc1ccc(Cl)cc1Cl)Nc1ccc2c(c1O)S(=O)(=O)CCC2`, the IC50 in [1] is over 10000 nM.
For the compound `Cc1c(F)cccc1Nc1c(Nc2ccc3c(c2O)S(=O)(=O)CCC3)c(=O)c1=O`, in data set [1], the half-maximal inhibitory concentration (IC50) was 1360 nM.
With `O=C(Nc1ccc2c(c1O)S(=O)(=O)CCC2=O)Nc1cccc(Cl)c1Cl`, the IC50 in data set [1] is 400 nM.
Same read-out and setting: to `Cc1c(F)cccc1NC(=O)Nc1ccc2c(c1O)S(=O)(=O)CCC2=O` belongs 420 nM.
Regarding `O=c1c(Nc2ccccc2Br)c(Nc2ccc3c(c2O)S(=O)(=O)CCC3)c1=O`, the IC50 in [1] came out at 150 nM.
Consider `O=c1c(Nc2ccccc2Br)c(Nc2ccc3c(c2O)S(=O)(=O)CC=C3)c1=O`, for which the half-inhibitory concentration (IC50) in data set [1] stood at 78 nM.
Take `Cc1c(Cl)cccc1NC(=O)Nc1ccc2c(c1O)S(=O)(=O)CCC2`: the IC50 in data set [1] turned out to be 2430 nM.
For `Cc1c(Cl)cccc1NC(=O)Nc1ccc2c(c1O)S(=O)(=O)CC=C2`, the IC50 in data set [1] came to 1640 nM.
With `O=C(Nc1ccc(Br)cc1)Nc1ccc2c(c1O)S(=O)(=O)CC=C2`, the IC50 in data set [1] was 1480 nM.
Take `O=C(Nc1ccccc1F)Nc1ccc2c(c1O)S(=O)(=O)CC=C2`: the IC50 in [1] was found to be 320 nM.
As to `O=c1c(Nc2ccc3c(c2O)S(=O)(=O)CCC3)c(Nc2cccc(F)c2Cl)c1=O`, the IC50 in data set [1] was 3450 nM.
As for `O=C(Nc1ccc(Br)cc1)Nc1ccc2c(c1O)S(=O)(=O)CCC2`, the IC50 in data set [1] is over 10000 nM.
In the case of `O=C(Nc1ccccc1F)Nc1ccc2c(c1O)S(=O)(=O)CCC2`, the IC50 in data set [1] amounted to 1020 nM.
As for `Cc1ccc(NC(=O)Nc2ccc3c(c2O)S(=O)(=O)CC=C3)cc1`, the 50% inhibitory concentration (IC50) in data set [1] came out at 190 nM.
Take `O=C(Nc1ccc2c(c1O)S(=O)(=O)CCC2)Nc1cccc(Cl)c1Cl`: in data set [1], the concentration for half-maximal inhibition (IC50) was 210 nM.
Consider `O=C(Nc1ccccc1Br)Nc1ccc2c(c1O)S(=O)(=O)CC=C2`, for which the IC50 in data set [1] turned out to be 49 nM.
With `O=c1c(Nc2ccccc2Cl)c(Nc2ccc3c(c2O)S(=O)(=O)CC=C3)c1=O`, the half-maximal inhibitory concentration (IC50) in [1] was 200 nM.
The same measure, in the same setting: to `O=c1c(Nc2ccc3c(c2O)S(=O)(=O)CC=C3)c(Nc2cccc(F)c2Cl)c1=O` belongs 700 nM.
On the same count and under the same terms, the result for `Cc1c(F)cccc1Nc1c(Nc2ccc3c(c2O)S(=O)(=O)CC=C3)c(=O)c1=O` reads 370 nM; that for `O=C(Nc1ccc2c(c1O)S(=O)(=O)CC=C2)Nc1cccc(F)c1Cl`, 19000 nM; that for `O=C(Nc1ccc2c(c1O)S(=O)(=O)CCC2)Nc1cccc(F)c1Cl`, 43 nM.
The same measure, in the same setting: the result for `O=C(Nc1ccccc1Cl)Nc1ccc2c(c1O)S(=O)(=O)CC=C2` reads 66 nM; that for `O=C(Nc1ccccc1Br)Nc1ccc2c(c1O)S(=O)(=O)CCC2`, 140 nM.
For `O=C(Nc1ccccc1Cl)Nc1ccc2c(c1O)S(=O)(=O)CCC2`, the IC50 in data set [1] was 210 nM.
With `NS(=O)(=O)c1c(Cl)ccc(NC(=O)Nc2cccc(Cl)c2Cl)c1O`, the t1/2 in [2] came out at 215 min. This compound also returned an area under the curve (AUC) in [3] of 11072.08 ng·h/mL. Besides, the Vd in data set [4] stood at 5.07 L/kg. Also, in [5], the CL came to 453.5 mL/min/kg. Further, the Cmax in [6] is 8350 ng/mL; in data set [10], 3810 ng/mL. Moreover, the Vz in data set [7] worked out at 14.09 L/kg. Also, the values for the time of peak concentration (Tmax) in data set [8] and in [15] were 3.6 min and 18 min, respectively. In data set [9], the AUC(0-inf) worked out at 3160 ng·h/mL. In data set [11], the clearance was 16.3 mL/min/kg. The outcome in data set [12] was Active. Also, the concentration for half-maximal inhibition (IC50) in data set [1] amounted to 13 nM. For the same compound, the results for the AUC(0-t) at 48 h in [13] and in [14] were 3160 ng·h/mL and 11100 ng·h/mL, respectively. The compound also showed a bioavailability in data set [16] of 35%. In [17], the half-life is 216 min.
With `O=c1c(Nc2ccc3c(c2O)S(=O)(=O)CC=C3)c(Nc2cccc(Cl)c2Cl)c1=O`, the IC50 in data set [1] came to 2500 nM.
With `O=C(Nc1ccc2c(c1O)S(=O)(=O)CC=C2)Nc1cccc(Cl)c1Cl`, in data set [1], the IC50 is 130 nM.
`O=C(Nc1ccc(Cl)cc1Cl)Nc1ccc2c(c1O)S(=O)(=O)CC=C2`: in data set [1], the IC50 was determined as 5920 nM.
As for `O=C(Nc1ccccc1C(F)(F)F)Nc1ccc2c(c1O)S(=O)(=O)CC=C2`, the 50% inhibitory concentration (IC50) in [1] was 1600 nM.
Still for that read-out and setting: the result for `Cc1ccc(NC(=O)Nc2ccc3c(c2O)S(=O)(=O)CCC3)cc1` reads 1320 nM; that for `O=C(Nc1ccccc1C(F)(F)F)Nc1ccc2c(c1O)S(=O)(=O)CCC2`, 4510 nM.
